# Laboratory results reported in the NIST ThermoML archive (doi:10.1016/j.jct.2014.09.004).
# Numbers after ± are expanded uncertainties.
# Details: Liquid; pulse heating
Critical pressure,Critical temperature,Compound
3170 ± 100 kPa,894 ± 9 K,c1ccc2cc3ccccc3cc2c1 [anthracene]
3180 ± 100 kPa,836 ± 8 K,c1ccc2c(c1)Cc1ccccc1-2 [fluorene]
3250 ± 100 kPa,893 ± 9 K,c1ccc2c(c1)ccc1ccccc12 [phenanthrene]

# More lines, now with the values behind:
Compound,Critical pressure,Critical temperature
c1cc2c3c(cccc3c1)CC2 [acenaphthene],3700 ± 110 kPa,820 ± 8 K
c1cc2ccc3cccc4ccc(c1)c2c34 [pyrene],3030 ± 90 kPa,974 ± 10 K
